Laboratory results taken from PubChem BioAssay AID328 (DTP/NCI, 2004).
Several values for one entry are separate records, joined by “and”; a condition that tells them apart may be missing. Equal values may be shown once. Inconclusive results and toxic doses are left out. How the source made its calls: active means survival T/C of 150% or more; inactive means T/C below 125% in these data.

Tested on: BDF1 mice, P388 leukemia ip, median survival T/C
Assay: NCI In Vivo Anticancer Drug Screen. Data for tumor model P388 Leukemia (intraperitoneal) in B6D2F1 (BDF1) mice
Settings: endpoint: median survival time, higher = longer survival
In short: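 T/C = treated-group survival ÷ vehicle-control survival; tumour transplanted into mice before dosing.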

[1] = dose: 50.0 mg/kg/injection, schedule: Q01DX009 (ip), vehicle: Klucel (hydroxypropylcellulose) (HPC)
[2] = dose: 100.0 mg/kg/injection, schedule: Q01DX009 (ip), vehicle: Klucel (hydroxypropylcellulose) (HPC)
[3] = dose: 100.0 mg/kg/injection, schedule: Q04DX003 (ip), vehicle: Klucel (hydroxypropylcellulose) (HPC)
[4] = dose: 200.0 mg/kg/injection, schedule: Q01DX009 (ip), vehicle: Klucel (hydroxypropylcellulose) (HPC)
[5] = dose: 200.0 mg/kg/injection, schedule: Q04DX003 (ip), vehicle: Klucel (hydroxypropylcellulose) (HPC)
[6] = dose: 400.0 mg/kg/injection, schedule: Q04DX003 (ip), vehicle: Klucel (hydroxypropylcellulose) (HPC)
[7] = dose: 50.0 mg/kg/injection, schedule: Q01DX009 (ip), vehicle: saline with Tween-80
[8] = dose: 100.0 mg/kg/injection, schedule: Q04DX003 (ip), vehicle: saline with Tween-80
[9] = dose: 200.0 mg/kg/injection, schedule: Q04DX003 (ip), vehicle: saline with Tween-80

Measured: T/C

CCc1cccc(CC)c1-n1c(C)ccc1-c1ccccc1
inactive: dose: 50.0 mg/kg/injection, schedule: Q01DX009 (ip), vehicle: saline + alcohol 106 % of control | dose: 100.0 mg/kg/injection, schedule: Q01DX009 (ip), vehicle: saline + alcohol 101 % of control | dose: 200.0 mg/kg/injection, schedule: Q01DX009 (ip), vehicle: saline + alcohol 106 % of control

CCOC(=O)C(CCC(=O)OC)C1=NC(C)(C)CC(C)O1 (stereo not drawn)
inactive: dose: 50.0 mg/kg/injection, schedule: Q01DX001 (ip), vehicle: saline sonified 104 % of control | dose: 100.0 mg/kg/injection, schedule: Q01DX001 (ip), vehicle: saline sonified 100 % of control | dose: 200.0 mg/kg/injection, schedule: Q01DX001 (ip), vehicle: saline sonified 100 % of control

CO/N=C/c1cccnc1
inactive: dose: 50.0 mg/kg/injection, schedule: Q01DX005 (ip), vehicle: saline 101 % of control | dose: 100.0 mg/kg/injection, schedule: Q01DX005 (ip), vehicle: saline 105 % of control

CCCCC(CC)CCC(O)CC(C)C (stereo not drawn)
inactive: [1] 100 % of control | [2] 95 % of control | [3] 104 % of control | [4] 100 % of control | [5] 100 % of control | [6] 100 % of control

Ic1ncnc2c1ncn2C1CCCCO1 (stereo not drawn)
inactive: dose: 100.0 mg/kg/injection, schedule: Q04DX003 (ip), vehicle: saline sonified 91 % of control | dose: 200.0 mg/kg/injection, schedule: Q04DX003 (ip), vehicle: saline sonified 91 % of control | dose: 400.0 mg/kg/injection, schedule: Q04DX003 (ip), vehicle: saline sonified 91 % of control

COc1ccc2c(c1OC)CN(C)CCc1cc3c(cc1C(=O)C2)OCO3
inactive: dose: 18.75 mg/kg/injection, schedule: Q01DX009 (ip), vehicle: saline with Tween-80 95 % of control | dose: 37.5 mg/kg/injection, schedule: Q01DX009 (ip), vehicle: saline with Tween-80 95 % of control

CC(C)(C)c1cc(CO)c(Sc2c(CO)cc(C(C)(C)C)cc2CO)c(CO)c1
inactive: dose: 400.0 mg/kg/injection, schedule: Q01DX001 (ip), vehicle: saline with Tween-80 90 % of control

CCCCCCC1CCC(N)CC1 (stereo not drawn)
inactive: dose: 12.5 mg/kg/injection, schedule: Q01DX009 (ip), vehicle: Klucel (hydroxypropylcellulose) (HPC) 97 % of control | dose: 25.0 mg/kg/injection, schedule: Q01DX009 (ip), vehicle: Klucel (hydroxypropylcellulose) (HPC) 101 % of control

O=S(=O)(NC(=S)Nc1ccc(Cl)cc1)c1ccccc1
inactive: [1] 113 % of control | [2] 118 % of control | dose: 150.0 mg/kg/injection, schedule: Q04DX003 (ip), vehicle: Klucel (hydroxypropylcellulose) (HPC) 113 % of control | dose: 225.0 mg/kg/injection, schedule: Q04DX003 (ip), vehicle: Klucel (hydroxypropylcellulose) (HPC) 117 % of control | dose: 335.0 mg/kg/injection, schedule: Q04DX003 (ip), vehicle: Klucel (hydroxypropylcellulose) (HPC) 113 % of control

COc1cc([C@@H]2c3cc4c(c(O)c3C[C@H]3COC(=O)[C@@H]32)OCO4)cc(OC)c1O
inactive: dose: 0.12 mg/kg/injection, schedule: Q01DX010 (ip), vehicle: carboxymethylcellulose (CMC) 105 % of control | dose: 0.25 mg/kg/injection, schedule: Q01DX010 (ip), vehicle: carboxymethylcellulose (CMC) 100 % of control | dose: 0.5 mg/kg/injection, schedule: Q01DX001 (ip), vehicle: other 121 % of control | dose: 0.5 mg/kg/injection, schedule: Q01DX010 (ip), vehicle: other 118 % of control | dose: 1.0 mg/kg/injection, schedule: Q01DX010 (ip), vehicle: carboxymethylcellulose (CMC) 100 % of control and 123 % of control | dose: 30.0 micrograms/kg/injection, schedule: Q01DX010 (ip), vehicle: other 110 % of control | dose: 60.0 micrograms/kg/injection, schedule: Q01DX010 (ip), vehicle: other 110 % of control

O=S1(=O)C=C(c2ccccc2)C1
inactive: [7] 108 % of control | dose: 100.0 mg/kg/injection, schedule: Q01DX009 (ip), vehicle: saline with Tween-80 107 % of control

O=C1OC2(CCCCC2)OC(=O)C1=C/C=C/c1ccc([N+](=O)[O-])o1
inactive: dose: 3.13 mg/kg/injection, schedule: Q01DX009 (ip), vehicle: saline with Tween-80 100 % of control | dose: 6.25 mg/kg/injection, schedule: Q01DX009 (ip), vehicle: saline with Tween-80 98 % of control | dose: 12.5 mg/kg/injection, schedule: Q01DX009 (ip), vehicle: saline with Tween-80 91 % of control and 121 % of control | dose: 25.0 mg/kg/injection, schedule: Q01DX009 (ip), vehicle: saline with Tween-80 97 % of control and 99 % of control | [7] 112 % of control

O=C(c1c(F)c(F)c(F)c(F)c1F)N1CC1
inactive: dose: 25.0 mg/kg/injection, schedule: Q01DX009 (ip), vehicle: water 106 % of control | dose: 25.0 mg/kg/injection, schedule: Q04DX003 (ip), vehicle: water 104 % of control | dose: 50.0 mg/kg/injection, schedule: Q01DX009 (ip), vehicle: water 111 % of control | dose: 50.0 mg/kg/injection, schedule: Q04DX003 (ip), vehicle: water 91 % of control | dose: 100.0 mg/kg/injection, schedule: Q01DX009 (ip), vehicle: water 111 % of control | dose: 100.0 mg/kg/injection, schedule: Q04DX003 (ip), vehicle: water 106 % of control | dose: 200.0 mg/kg/injection, schedule: Q01DX009 (ip), vehicle: water 97 % of control | dose: 200.0 mg/kg/injection, schedule: Q04DX003 (ip), vehicle: water 106 % of control | dose: 400.0 mg/kg/injection, schedule: Q01DX009 (ip), vehicle: water 100 % of control | dose: 400.0 mg/kg/injection, schedule: Q04DX003 (ip), vehicle: water 100 % of control

CC(NC(=O)C(C)NC(=O)C(N)CCS(C)(=O)=NP(=O)(O)O)C(=O)O (stereo not drawn)
inactive: dose: 12.5 mg/kg/injection, schedule: Q01DX009 (ip), vehicle: saline 101 % of control | dose: 25.0 mg/kg/injection, schedule: Q01DX009 (ip), vehicle: saline 110 % of control

COc1cc(/C=N/NC(=O)c2cccs2)cc(OC)c1OC
inactive: [8] 90 % of control | [9] 90 % of control | dose: 400.0 mg/kg/injection, schedule: Q04DX003 (ip), vehicle: saline with Tween-80 100 % of control

O=C(c1ccccc1)N1CCC2OC2C1 (stereo not drawn)
inactive: dose: 50.0 mg/kg/injection, schedule: Q01DX009 (ip), vehicle: saline 94 % of control | dose: 100.0 mg/kg/injection, schedule: Q01DX009 (ip), vehicle: saline 109 % of control | dose: 200.0 mg/kg/injection, schedule: Q01DX009 (ip), vehicle: saline 100 % of control

Cc1ccc(C2NC(=O)c3ccccc3N2)c(C)c1 (stereo not drawn)
inactive: [2] 110 % of control | [4] 110 % of control | dose: 400.0 mg/kg/injection, schedule: Q01DX009 (ip), vehicle: Klucel (hydroxypropylcellulose) (HPC) 120 % of control

O=C1C(=O)c2ccccc2C([O-])=C1[n+]1ccccc1
inactive: dose: 50.0 mg/kg/injection, schedule: Q04DX003 (ip), vehicle: saline with Tween-80 109 % of control | [8] 95 % of control | [9] 90 % of control

COc1ccc(OC)c(/C=C/C(=O)c2ccc(Cl)cc2)c1
inactive: [3] 104 % of control | [5] 95 % of control | [6] 104 % of control
